# In US8163906B2, “Dihydroquinone and dihydronaphthridine inhibitors of JNK” (Roche Palo Alto, LLC, priority 2007, dated 2012):
# Test system: not given
# Experiment: not given
# Details: not given
row,Structure (SMILES),melting point
1,COC(=O)c1c(Cc2ccc(S(=O)(=O)N3CCNCC3)cc2)c(=O)c2ccc(F)cc2n1-c1ccccc1.Cl,214 to 215 °C
2,"COC(=O)c1c(Cc2ccc(C(=O)CBr)cc2)c(=O)c2ccc(C)nc2n1-c1ccccc1 [Compound 89, 3-[4-(2-bromoacetyl)-benzyl]-7-methyl-4-oxo-1-phenyl-1,4-dihydro-[1,8]naphthyridine-2-carboxylic acid methyl ester]",189 to 191.1 °C
3,"COC(=O)c1ccc(Cc2c(C(=O)OC)n(-c3ccccc3)c3nc(C)ccc3c2=O)cn1 [Compound 100, 3-(6-Methoxycarbonyl-pyridin-3-ylmethyl)-7-methyl-4-oxo-1-phenyl-1,4-dihydro[1,8]naphthyridine-2-carboxylic Acid Methyl Ester]",177 to 178 °C
4,"CCNC(=O)c1ccc(Cc2c(C(=O)OC)n(-c3ccccc3)c3nc(C)ccc3c2=O)cn1 [Compound 101, 3-(6-Ethylcarbamoyl-pyridin-3-ylmethyl)-7-methyl-4-oxo-1-phenyl-1,4-dihydro[1,8]naphthyridine-2-carboxylic Acid Methyl Ester]",208 to 209 °C
5,COC(=O)c1c(CN2CCOCC2)c(=O)c2ccc(F)cc2n1-c1ccccc1 [Compound 123],169 to 170 °C
6,COC(=O)c1c(Cc2cnc(OC)nc2)c(=O)c2ccc(F)cc2n1-c1ccccc1 [Compound 125],206 to 207 °C
7,"COC(=O)c1c(CN2CCC(S(C)(=O)=O)CC2)c(=O)c2ccc(F)cc2n1-c1ccccc1 [Compound 126, 7-fluoro-3-(4-methanesulfonyl-piperidin-1-ylmethyl)-4-oxo-1-phenyl-1,4-dihydro-quinoline-2-carboxylic acid methyl ester]",190 to 191 °C
8,"COCCOC(=O)c1c(Cc2ccccc2)c(=O)c2ccc(F)cc2n1-c1ccccc1 [Compound 130, 3-Benzyl-7-fluoro-4-oxo-1-phenyl-1,4-dihydro-quinoline-2-carboxylic acid 2-methoxy-ethyl ester]",168 to 169 °C
9,COC(=O)c1c(CN2CCN(S(C)(=O)=O)CC2)c(=O)c2ccc(F)cc2n1-c1ccccc1 [Compound 131],205 to 207 °C
10,COC(=O)c1c(CN2CCS(=O)(=O)CC2)c(=O)c2ccc(F)cc2n1-c1ccccc1 [Compound 132],119 to 120 °C
11,CCOC(=O)C1CCN(Cc2c(C(=O)OC)n(-c3ccccc3)c3cc(F)ccc3c2=O)CC1 [Compound 133],136 to 137 °C
12,COC(=O)c1c(CN2CCC(C#N)CC2)c(=O)c2ccc(F)cc2n1-c1ccccc1 [Compound 136],159 to 160 °C

# Continued, values first:
row,melting point,Structure (SMILES)
1,211 to 212 °C,COC(=O)c1c(Cc2ccc(S(=O)(=O)N3CCNCC3(C)C)cc2)c(=O)c2ccc(F)cc2n1-c1ccccc1.Cl
2,220 to 220.5 °C,"COC(=O)c1c(Cc2ccc(Cl)nc2)c(=O)c2ccc(C)nc2n1-c1ccccc1 [Compound 83, 3-(6-chloro-pyridin-3-ylmethyl)-7-methyl-4-oxo-1-phenyl-1,4-dihydro[1,8]naphthyridine-2-carboxylic acid methyl ester]"
3,217 to 218 °C,"COC(=O)c1c(Cc2ccc(S(C)(=O)=O)nc2)c(=O)c2ccc(C)nc2n1-c1ccccc1 [Compound 92, 3-(6-Methanesulfonyl-pyridin-3-ylmethyl)-7-methyl-4-oxo-1-phenyl-1,4-dihydro[1,8]naphthyridine-2-carboxylic Acid Methyl Ester]"
4,176 to 177 °C,"COC(=O)c1c(Cc2ccc(OC)nc2)c(=O)c2ccc(C)nc2n1-c1ccccc1 [Compound 102, 3-(6-Methoxypyridin-3-ylmethyl)-7-methyl-4-oxo-1-phenyl-1,4-dihydro[1,8]naphthridine-2-carboxylic Acid Methyl Ester]"
5,235 to 236 °C,"COC(=O)c1c(Cc2ccc(C(=O)N(C)C)nc2)c(=O)c2ccc(C)nc2n1-c1ccccc1 [Compound 103, 3-(6-Dimethylcarbamoyl-pyridin-3-ylmethyl)-7-methyl-4-oxo-1-phenyl-1,4-dihydro[1,8]naphthyridine-2-carboxylic Acid Methyl Ester]"
6,120 to 121 °C,COC(=O)c1c(Cc2ccc(S(=O)(=O)N3CCN(C(=O)OC(C)(C)C)CC3)cc2)c(=O)c2ccc(F)cc2n1-c1ccccc1 [Compound 108]
7,163 to 164 °C,COC(=O)c1c(Cc2ccc(SCCO)cc2)c(=O)c2ccc(F)cc2n1-c1ccccc1 [Compound 111]
8,165 to 166 °C,COC(=O)c1c(Cc2ccc(S(=O)(=O)CCO)cc2)c(=O)c2ccc(F)cc2n1-c1ccccc1 [Compound 112]
9,116 to 117 °C,COC(=O)c1c(Cc2ccc(S(=O)(=O)N3CCN(C(=O)OC(C)(C)C)CC3(C)C)cc2)c(=O)c2ccc(F)cc2n1-c1ccccc1 [Compound 113]
10,193 to 195 °C,COC(=O)c1c(Cc2ccc(S(C)(=O)=O)cc2)c(=O)c2ccc(C(F)(F)F)nc2n1-c1ccccc1 [Compound 115]
11,170 to 173 °C,COC(=O)c1c(Cc2ccc(C(=O)NCCO)cc2)c(=O)c2ccc(C(F)(F)F)nc2n1-c1ccccc1 [Compound 116]
12,193.6 to 194.9 °C,COC(=O)c1c(Cc2ccc(S(=O)(=O)C(C)CO)cc2)c(=O)c2ccc(F)cc2n1-c1ccccc1 (stereo not shown) [Compound 118]
13,195.9 to 197.2 °C,COC(=O)c1c(Cc2ccc(S(=O)(=O)C(C)CO)cc2)c(=O)c2ccc(C)nc2n1-c1ccccc1 (stereo not shown) [Compound 119]
14,200 to 201 °C,COC(=O)c1c(Cc2ccccc2)c(=O)c2ccc(Cl)cc2n1-c1ccccc1 [Compound 120]
15,179 to 180 °C,CCOC(=O)c1c(Cc2ccccc2)c(=O)c2ccc(Cl)cc2n1-c1ccccc1 [Compound 121]
16,218 to 219 °C,COC(=O)c1c(Cc2ccc(C#N)cc2)c(=O)c2ccc(F)cc2n1-c1ccccc1 [Compound 124]
17,107 to 110 °C,COC(=O)c1c(CN2CCn3c(nnc3C(F)(F)F)C2)c(=O)c2ccc(F)cc2n1-c1ccccc1 [Compound 134]
18,168 to 169 °C,C=CCn1c(C(=O)OC)c(Cc2ccc(S(C)(=O)=O)cc2)c(=O)c2ccc(C)nc21 [Compound 139]
19,219 to 220 °C,"O=c1c(Cc2ccccc2)c(-c2ncco2)n(-c2ccccc2)c2cc(Cl)ccc12 [Compound 140, 3-benzyl-7-chloro-2-oxazol-2-yl-1-phenyl-1H-quinolin-4-one]"

# Target: Human JNK2α2 (Homo sapiens, UniProt P45984)
# Experiment: JNK assay in vitro, phosphorylation of GST-ATF2 with [γ-33P] ATP (JNK2)
# Format: biochemical
# Details: ATP at Km (8 μM), 1 μM ATF2, 30° C. 30 min
# Method: (§1) JNK activity was measured by phosphorylation of GST-ATF2 (19-96) with [γ-^33P] ATP. […] Human JNK2α2 assay contains 1 nM enzyme, 1 μM ATF2, 8 μM ATP with 1 uCi [γ-^33P] ATP. Human JNK1α1 assay contains 2 nM enzyme, 1 μM ATF2, 6 μM ATP with 1 μCi [γ-^33P] ATP. […] ATP. The enzyme assay was carried out in the presence or absence of several compound concentrations. JNK and compound were pre-incubated for 10 min., followed by initiation of the enzymatic reaction by adding ATP and the substrate. The reaction mixture was incubated at 30° C. for 30 min. […] The incorporation of ^33P into ATF2 was quantified on a microplate scintillation counter (Packard Topcount). Compound inhibition potency on JNK was measured by IC50 value generated from ten concentration inhibition curves fitted into the 3-parameter model: % inhibition=Maximum/(1+(IC50/[Inhibitor])^slope). Data were analyzed on Microsoft Excel for parameter estimation.
# Human JNK2α2, sequence (P45984 whole entry): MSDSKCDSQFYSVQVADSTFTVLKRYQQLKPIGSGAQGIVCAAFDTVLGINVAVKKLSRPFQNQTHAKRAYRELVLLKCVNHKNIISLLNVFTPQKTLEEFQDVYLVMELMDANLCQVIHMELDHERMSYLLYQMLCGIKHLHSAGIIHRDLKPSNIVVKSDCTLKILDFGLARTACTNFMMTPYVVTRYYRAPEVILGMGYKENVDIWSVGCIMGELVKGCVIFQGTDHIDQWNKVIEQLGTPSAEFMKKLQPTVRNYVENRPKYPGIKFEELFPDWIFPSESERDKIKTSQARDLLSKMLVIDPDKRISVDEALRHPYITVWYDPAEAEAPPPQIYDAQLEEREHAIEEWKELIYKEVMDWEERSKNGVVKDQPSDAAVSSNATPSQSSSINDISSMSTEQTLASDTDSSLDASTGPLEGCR
row,IC50,Structure (SMILES)
1,0.161 µM,"COC(=O)c1c(Cc2ccc(S(=O)(=O)N3CCOCC3)cc2)c(=O)c2ccc(Cl)cc2n1-c1ccccc1 [Compound 31, 7-Chloro-3-[4-(morpholine-4-sulfonyl)-benzyl]-4-oxo-1-phenyl-1,4-dihydroquinoline-2-carboxylic acid methyl ester]"
2,0.137 µM,"COC(=O)c1c(Cc2ccc(S(=O)(=O)NCC(O)CO)cc2)c(=O)c2ccc(Cl)cc2n1-c1ccccc1 (stereo not shown) [Compound 46, 7-chloro-3-[4-(2,3-dihydroxy-propylsulfamoyl)-benzyl]-4-oxo-1-phenyl-1,4-dihydroquinoline-2-carboxylic acid methyl ester]"
3,0.226 µM,"COC(=O)c1ccc(Cc2c(C(=O)OC)n(-c3ccccc3)c3nc(C)ccc3c2=O)cn1 [Compound 100, 3-(6-Methoxycarbonyl-pyridin-3-ylmethyl)-7-methyl-4-oxo-1-phenyl-1,4-dihydro[1,8]naphthyridine-2-carboxylic Acid Methyl Ester]"

# Target: Human JNK1α1 (Homo sapiens, UniProt P45983)
# Experiment: JNK assay in vitro, phosphorylation of GST-ATF2 with [γ-33P] ATP (JNK1)
# Format: biochemical
# Details: ATP at Km (6 μM), 1 μM ATF2, 30° C. 30 min; read-out: IC50 vs. JNK1
# Method: as §1
# Human JNK1α1, sequence (P45983 1-384 isoform P45983-2): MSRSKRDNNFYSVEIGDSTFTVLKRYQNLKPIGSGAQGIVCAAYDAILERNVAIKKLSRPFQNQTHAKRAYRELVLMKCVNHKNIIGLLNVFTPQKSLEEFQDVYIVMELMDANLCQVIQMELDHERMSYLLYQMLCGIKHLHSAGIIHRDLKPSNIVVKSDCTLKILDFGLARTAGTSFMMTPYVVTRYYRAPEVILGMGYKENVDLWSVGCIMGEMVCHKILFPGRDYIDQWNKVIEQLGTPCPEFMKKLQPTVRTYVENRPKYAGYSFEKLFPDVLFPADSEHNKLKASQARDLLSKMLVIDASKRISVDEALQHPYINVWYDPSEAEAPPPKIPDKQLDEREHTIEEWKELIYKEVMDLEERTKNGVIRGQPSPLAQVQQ
row,IC50,Structure (SMILES)
1,0.0529 µM,"COC(=O)c1c(Cc2ccc(S(=O)(=O)N3CCOCC3)cc2)c(=O)c2ccc(Cl)cc2n1-c1ccccc1 [Compound 31, 7-Chloro-3-[4-(morpholine-4-sulfonyl)-benzyl]-4-oxo-1-phenyl-1,4-dihydroquinoline-2-carboxylic acid methyl ester]"
2,0.0454 µM,"COC(=O)c1c(Cc2ccc(S(=O)(=O)NCC(O)CO)cc2)c(=O)c2ccc(Cl)cc2n1-c1ccccc1 (stereo not shown) [Compound 46, 7-chloro-3-[4-(2,3-dihydroxy-propylsulfamoyl)-benzyl]-4-oxo-1-phenyl-1,4-dihydroquinoline-2-carboxylic acid methyl ester]"

row,Structure (SMILES),IC50
1,"CNS(=O)(=O)c1ccc(Cc2c(C(=O)OC)n(-c3ccccc3)c3cc(Cl)ccc3c2=O)cc1 [Compound 44, 7-Chloro-3-(4-methylsulfamoyl-benzyl)-4-oxo-1-phenyl-1,4-dihydroquinoline-2-carboxylic acid methyl ester]",0.0491 µM
